Results as given in patent US10603304B1, “Compositions and methods for treating anxiety” (priority 2015, dated 2020).

Experiments:
[1] = test system: lynx2KO mice; assay: light dark box experiment (latency to enter dark enclosed environment); assay type: in vivo; conditions: lynx2KO mice under chronic stress with administration of mec, as opposed to lynx2KO mice without mec (FIG. 2A)
Description: FIG. 2A is a graph of the time in seconds (latency) for wild type (WT) (black bars) or lynx2 knock out (KO) (white bars) mice to enter a dark enclosed environment under conditions of saline, chronic stress, or chronic stress with administration of mecamylamine (mec) as indicated, according to embodiments of the present invention.

[2] = test system: lynx2KO mice; assay: fear extinction experiment (fear associated with a noise after shock training); assay type: in vivo; conditions: lynx2KO mice with administration of mec compared to lynx2KO mice without mec (FIGS. 2B-2C)
Experimental: FIG. 2B is a graph of fear observed in wild type (black circles) and lynx2KO mice (white triangles) after fear training (an electric shock depicted in yellow) associated with a noise for 24 hours followed by the same noise without the shock to measure the mouse's capability to lose the fear, according to embodiments of the present invention.
FIG. 2C is a graph of fear observed in lynx2KO mice during the fear extinction experiment of FIG. 2B with a group of lynx2KO mice receiving mecamylamine (mec), according to embodiments of the present invention.

[3] = test system: amygdala (EC) neurons of lynx2KO mice; assay: long term depression (LTD) of evoked fEPSPs in brain slices after theta pulse stimulations; assay type: cell-based; conditions: brain slices from lynx2KO mice in ACSF solution with 20 mM methyllycaconitine (MLA), theta pulse stimulations (FIG. 4D)
Experimental: FIG. 4D is a graph of stimulating electrode traces from long term depression (LTD) experiments using extracellular recordings for evoked field excitatory post-synaptic potentials (fEPSPs) in […] (EC) brain slices in ACSF solution with […] methyllycaconitine (MLA) from lynx2 knockout (KO) mice before (left of zero minutes) and after (right of zero minutes) theta pulse stimulations (TSP), according to embodiments of the present invention.
The animals were anesthetized by isoflurane in an anesthetic chamber to a tolerant state (ml/kg) and euthanized through decapitation. […]
Field excitatory postsynaptic potentials (fEPSPs) were evoked by 0.05 Hz test stimulus though a bipolar stimulating electrode placed on external Capsule (EC), and a glass pipette as recording electrode was filled with ACSF and placed in BLA. […] Access resistances were continuously monitored and neurons with more than 20% change of series resistance were excluded from data analysis.
The plasticity ratio was calculated from the average EPSP amplitude of the last 10 mins of baseline recording and the last 15 mins after high frequency or low stimulus, for LTP and LTD studies, respectively. […] For all experiments, treatment effects were analyzed with one-way ANOVA, followed by the appropriate post hoc tests. […]

SMILES	latency to dark [1]	ability to unlearn a fear associated with a noise (fear extinction) [2]	rescue of induced long term depression (LTD) [3]
CNC1(C)C2CCC(C2)C1(C)C (stereo not drawn) [mecamylamine]	increased latency to dark	increased ability to unlearn a fear	
CCN1C[C@]2(COC(=O)c3ccccc3N3C(=O)C[C@H](C)C3=O)CC[C@H](OC)[C@@]34[C@@H]5C[C@H]6[C@H](OC)[C@@H]5[C@](O)(C[C@@H]6OC)[C@@](O)([C@@H](OC)[C@H]23)[C@@H]14 [methyllycaconitine]			able to rescue induced long term depression (LTD)
